26 compounds from ChEMBL document CHEMBL2390867, “Design, synthesis and evaluation of novel tacrine-coumarin hybrids as multifunctional cholinesterase inhibitors against Alzheimer's disease” (Eur J Med Chem, 2013) can be followed below.

Active and inactive are the calls of the source. No cut-off for these calls is given here.

The target of one data set is Cholinesterase (Equus caballus, UniProt P81908).
The target in data set [1] is T1, Acetylcholinesterase (Electrophorus electricus, UniProt O42275).
T1 sequence (O42275 whole entry): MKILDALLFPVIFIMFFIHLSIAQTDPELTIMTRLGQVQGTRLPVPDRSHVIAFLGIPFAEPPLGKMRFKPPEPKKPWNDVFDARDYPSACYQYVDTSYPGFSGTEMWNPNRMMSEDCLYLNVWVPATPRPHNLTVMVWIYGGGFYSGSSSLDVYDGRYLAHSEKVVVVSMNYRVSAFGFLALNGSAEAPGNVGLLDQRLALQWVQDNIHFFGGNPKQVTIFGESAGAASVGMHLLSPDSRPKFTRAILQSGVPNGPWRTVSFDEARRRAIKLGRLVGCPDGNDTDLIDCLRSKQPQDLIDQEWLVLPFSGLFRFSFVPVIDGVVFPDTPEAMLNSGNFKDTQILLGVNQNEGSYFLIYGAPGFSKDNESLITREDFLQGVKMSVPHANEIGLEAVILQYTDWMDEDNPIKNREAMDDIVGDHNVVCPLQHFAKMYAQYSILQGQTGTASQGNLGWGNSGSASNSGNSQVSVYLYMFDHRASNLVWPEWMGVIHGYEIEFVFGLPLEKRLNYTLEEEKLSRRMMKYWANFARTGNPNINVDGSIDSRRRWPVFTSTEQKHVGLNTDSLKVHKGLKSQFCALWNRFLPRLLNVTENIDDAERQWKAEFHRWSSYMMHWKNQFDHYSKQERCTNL
Description: Inhibition of electric eel AChE using acetylthiocholine iodide as substrate preincubated for 6 mins prior to substrate addition measured at 60 to 180 seconds by Ellman's method
Data set [2] deals with Amyloid-beta precursor protein (Homo sapiens) (UniProt P05067). The following applies: at 20 µM.
Chain of Amyloid-beta precursor protein (Homo sapiens) (P05067 whole entry): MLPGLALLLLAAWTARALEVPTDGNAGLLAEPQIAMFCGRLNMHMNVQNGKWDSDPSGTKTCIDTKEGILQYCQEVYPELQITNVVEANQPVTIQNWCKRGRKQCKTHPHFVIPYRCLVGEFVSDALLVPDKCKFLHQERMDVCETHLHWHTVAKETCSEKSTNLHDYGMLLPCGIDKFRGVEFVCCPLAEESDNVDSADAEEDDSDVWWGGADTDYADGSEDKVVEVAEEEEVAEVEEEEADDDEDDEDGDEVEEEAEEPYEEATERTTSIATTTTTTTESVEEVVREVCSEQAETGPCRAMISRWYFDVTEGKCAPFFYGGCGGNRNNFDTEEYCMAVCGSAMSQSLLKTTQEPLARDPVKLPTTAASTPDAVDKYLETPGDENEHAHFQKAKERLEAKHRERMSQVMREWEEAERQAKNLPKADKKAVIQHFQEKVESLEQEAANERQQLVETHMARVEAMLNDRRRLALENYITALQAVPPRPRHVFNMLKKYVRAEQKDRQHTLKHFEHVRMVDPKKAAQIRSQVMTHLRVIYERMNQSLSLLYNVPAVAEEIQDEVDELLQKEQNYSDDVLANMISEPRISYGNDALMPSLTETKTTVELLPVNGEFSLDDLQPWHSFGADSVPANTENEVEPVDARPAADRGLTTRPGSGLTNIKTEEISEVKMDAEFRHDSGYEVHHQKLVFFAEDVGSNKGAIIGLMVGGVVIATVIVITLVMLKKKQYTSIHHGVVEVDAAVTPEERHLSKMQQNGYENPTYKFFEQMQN
Data set [3] can be described thus: Neurotoxicity in human SH-SY5Y cells at 50 uM after 24 hrs by MTT assay relative to control. The format is toxicity, cell-based. On the technique in general: Tetrazolium dyes change colour on reduction, which living cells bring about.
Data set [4] is described as follows: Neurotoxicity in human SH-SY5Y cells at 25 uM after 24 hrs by MTT assay relative to control. The format is toxicity, cell-based.
Data set [5] is described as follows: Neurotoxicity in human SH-SY5Y cells at 10 uM after 24 hrs by MTT assay relative to control. The class given is toxicity, cell-based.
Data set [6] is described as follows: Neurotoxicity in human SH-SY5Y cells at 5 uM after 24 hrs by MTT assay relative to control. The class given is toxicity, cell-based. The following applies: read-out: Activity.
Data set [7] can be described thus: Neurotoxicity in human SH-SY5Y cells at 1 uM after 24 hrs by MTT assay relative to control. The format is toxicity, cell-based.
Data set [8] can be described thus: Metal chelating activity assessed as compound-Cu2+ complex formation at 25 uM by UV-vis spectrophotometric analysis. The class given is functional.
Data set [9] concerns the target T1, Acetylcholinesterase. In words: Competitive inhibition of electric eel AChE using acetylthiocholine as substrate by Lineweaver-Burk plot analysis.
The nature of data set [10]: Metal chelating activity assessed as compound-Fe2+ complex formation at 25 uM by UV-vis spectrophotometric analysis. The class given is functional.

Chain of Cholinesterase (P81908 whole entry): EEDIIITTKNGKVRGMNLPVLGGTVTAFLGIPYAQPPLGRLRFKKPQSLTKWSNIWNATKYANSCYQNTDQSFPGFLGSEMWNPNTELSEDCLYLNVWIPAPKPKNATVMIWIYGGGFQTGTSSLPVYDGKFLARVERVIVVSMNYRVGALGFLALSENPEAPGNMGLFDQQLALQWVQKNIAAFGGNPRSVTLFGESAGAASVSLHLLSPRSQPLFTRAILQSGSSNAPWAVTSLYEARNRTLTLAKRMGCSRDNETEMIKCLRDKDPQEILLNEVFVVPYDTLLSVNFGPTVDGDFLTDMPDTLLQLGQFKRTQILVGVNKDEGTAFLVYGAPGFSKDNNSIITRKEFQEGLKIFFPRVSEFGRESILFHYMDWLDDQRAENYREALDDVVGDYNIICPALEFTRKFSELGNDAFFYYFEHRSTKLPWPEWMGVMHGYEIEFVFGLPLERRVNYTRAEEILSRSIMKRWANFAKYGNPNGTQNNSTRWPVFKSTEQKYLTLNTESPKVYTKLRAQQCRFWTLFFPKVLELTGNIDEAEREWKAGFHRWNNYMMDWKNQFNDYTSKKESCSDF

By IC50 is commonly meant the concentration at which inhibition is half-maximal. A low value points to higher potency. As usually defined, the inhibition is the share of the control response that was lost under treatment. Read a high inhibition as a response far below the control. Regarding `O=C(CN1CCN(CCCOc2ccc3ccc(=O)oc3c2)CC1)Nc1c2c(nc3ccccc13)CCCC2`, the values for the IC50 at Cholinesterase and on Acetylcholinesterase [1] were 0.44 µM and 0.133 µM, respectively. In data set [2], this compound came in with an inhibition of 55.1%.
For `O=C(CN1CCN(CCCOc2ccc3c(-c4ccccc4)cc(=O)oc3c2)CC1)Nc1c2c(nc3ccccc13)CCCC2` the same measures were 3.16 µM, 0.887 µM and 28.2%.
For `Cc1cc(=O)oc2cc(OCCCCN3CCN(CC(=O)Nc4c5c(nc6ccccc46)CCCC5)CC3)ccc12`, the IC50 came to 0.147 µM at Cholinesterase and 0.187 µM against Acetylcholinesterase [1]. This compound also showed an inhibition in [2] of 52.7%.
As for `COc1cc(=O)oc2cc(OCCCCCCN3CCN(CC(=O)Nc4c5c(nc6ccccc46)CCCC5)CC3)ccc12`, the half-inhibitory concentration (IC50) at Cholinesterase stood at 1.78 µM; against Acetylcholinesterase [1] it was 0.993 µM. Besides, the inhibition in data set [2] is 31.9%.
Regarding `O=C(CN1CCN(CCCCOc2ccc3c(-c4ccccc4)cc(=O)oc3c2)CC1)Nc1c2c(nc3ccccc13)CCCC2`, the IC50 against Cholinesterase came to 1.82 µM; on Acetylcholinesterase [1] it was 1.11 µM. This compound came in with an inhibition in data set [2] of 28.6%.
For the compound `Cc1cc(=O)oc2cc(OCCCCCN3CCN(CC(=O)Nc4c5c(nc6ccccc46)CCCC5)CC3)ccc12`, the IC50 on Cholinesterase was 0.164 µM; on Acetylcholinesterase [1], 0.333 µM. In data set [2], this compound had an inhibition of 59.8%.
On to `O=c1ccc2ccc(O)cc2o1`, for which the inhibition in data set [2] came to 30.5%.
Consider `Cc1cc(=O)oc2cc(O)ccc12` [HYMECROMONE], for which the 50% inhibitory concentration (IC50) is over 500 µM on Cholinesterase and 167 µM against Acetylcholinesterase [1]. Further, the inhibition in data set [2] amounted to 21.5%.
`COc1cc(=O)oc2cc(OCCN3CCN(CC(=O)Nc4c5c(nc6ccccc46)CCCC5)CC3)ccc12`: the IC50 on Cholinesterase came to 5.14 µM; on Acetylcholinesterase [1], 0.15 µM. Moreover, in data set [2], the inhibition is 21.6%.
Taken in the same sequence, the figures for `COc1cc(=O)oc2cc(OCCCCN3CCN(CC(=O)Nc4c5c(nc6ccccc46)CCCC5)CC3)ccc12` were 3.63 µM, 0.237 µM and 22.1%.
As to `O=C(CN1CCN(CCCCCOc2ccc3ccc(=O)oc3c2)CC1)Nc1c2c(nc3ccccc13)CCCC2`, the IC50 at Cholinesterase amounted to 0.215 µM; at Acetylcholinesterase [1] it was 0.31 µM. Besides, in [2], the inhibition was determined as 52.7%.
Taken in the same sequence, the figures for `COc1cc(=O)oc2cc(O)ccc12` were over 500 µM, 208 µM and 22.4%.
`Cc1cc(=O)oc2cc(OCCCN3CCN(CC(=O)Nc4c5c(nc6ccccc46)CCCC5)CC3)ccc12`: the 50% inhibitory concentration (IC50) amounted to 0.628 µM at Cholinesterase and 0.13 µM against Acetylcholinesterase [1]. Further, in data set [2], the inhibition stood at 67.5%.
Consider `O=C(CN1CCN(CCCCCOc2ccc3c(-c4ccccc4)cc(=O)oc3c2)CC1)Nc1c2c(nc3ccccc13)CCCC2`, for which the IC50 against Cholinesterase is 1.27 µM; against Acetylcholinesterase [1], 1.58 µM. Also, the inhibition in data set [2] amounted to 29.5%.
For `O=C(CN1CCN(CCOc2ccc3ccc(=O)oc3c2)CC1)Nc1c2c(nc3ccccc13)CCCC2` the same measures were 0.493 µM, 0.15 µM and 59%.
As to `O=C(CN1CCNCC1)Nc1c2c(nc3ccccc13)CCCC2`, the IC50 is 22 µM against Cholinesterase and 145 µM on Acetylcholinesterase [1]. This compound registered an inhibition in data set [2] of 30.3%.
In general, Ki refers to a dissociation constant, usually derived from enzyme kinetics or from competition with a known ligand. Consider `Cc1cc(=O)oc2cc(OCCN3CCN(CC(=O)Nc4c5c(nc6ccccc46)CCCC5)CC3)ccc12`, for which the Activity is on record as 91.5% in [3], 93.6% in data set [4], 104.3% in data set [5] and 96.6% in data set [7]. Also, the viability at 24 h, 5 µM in data set [6] was determined as 94.7%. In addition, the outcome in data set [8] and in data set [10] was Active. This compound also displayed a Ki at Acetylcholinesterase [9] of 0.081 µM. The values for the half-maximal inhibitory concentration (IC50) at Cholinesterase and at Acetylcholinesterase [1] were 0.234 µM and 0.092 µM, respectively.
For the compound `O=C(CN1CCN(CCCCOc2ccc3ccc(=O)oc3c2)CC1)Nc1c2c(nc3ccccc13)CCCC2`, the 50% inhibitory concentration (IC50) on Cholinesterase amounted to 0.309 µM; at Acetylcholinesterase [1], 0.169 µM. This compound came in with an inhibition in [2] of 57%.
For `O=C(CN1CCN(CCCCCCOc2ccc3c(-c4ccccc4)cc(=O)oc3c2)CC1)Nc1c2c(nc3ccccc13)CCCC2` the same measures were 4.51 µM, 2.36 µM and 27.5%.
With `COc1cc(=O)oc2cc(OCCCN3CCN(CC(=O)Nc4c5c(nc6ccccc46)CCCC5)CC3)ccc12`, the IC50 amounted to 1.83 µM on Cholinesterase and 0.166 µM against Acetylcholinesterase [1]. The compound further came in with an inhibition in data set [2] of 34.9%.
For the compound `COc1cc(/C=C/C(=O)CC(=O)/C=C/c2ccc(O)c(OC)c2)ccc1O`, in data set [2], the inhibition is 42.4%.
For the compound `O=C(CN1CCN(CCCCCCOc2ccc3ccc(=O)oc3c2)CC1)Nc1c2c(nc3ccccc13)CCCC2`, the half-maximal inhibitory concentration (IC50) was 0.21 µM against Cholinesterase and 0.646 µM at Acetylcholinesterase [1]. The compound also displayed an inhibition in data set [2] of 57.1%.
For `O=C(CN1CCN(CCOc2ccc3c(-c4ccccc4)cc(=O)oc3c2)CC1)Nc1c2c(nc3ccccc13)CCCC2`, the half-maximal inhibitory concentration (IC50) was 1.51 µM at Cholinesterase and 0.373 µM against Acetylcholinesterase [1]. The inhibition in data set [2] was 27.2%.
For `O=c1cc(-c2ccccc2)c2ccc(O)cc2o1` the same measures were over 500 µM, 258 µM and 27.1%.
Taken in the same sequence, the figures for `Cc1cc(=O)oc2cc(OCCCCCCN3CCN(CC(=O)Nc4c5c(nc6ccccc46)CCCC5)CC3)ccc12` were 0.099 µM, 0.398 µM and 57.6%.
For `COc1cc(=O)oc2cc(OCCCCCN3CCN(CC(=O)Nc4c5c(nc6ccccc46)CCCC5)CC3)ccc12` the same measures were 0.73 µM, 0.357 µM and 30%.
